Assays:
[1] = biological target: T1, repeat Tau (K18) (Homo sapiens, UniProt P10636); test: ThS fluorescence, inhibition of heparin-induced aggregation; type: biochemical
[2] = biological target: T1, repeat Tau (K18); test: UV-visible absorbance titration at […] nm; type: binding

T1 sequence (P10636 561-689 limits assumed): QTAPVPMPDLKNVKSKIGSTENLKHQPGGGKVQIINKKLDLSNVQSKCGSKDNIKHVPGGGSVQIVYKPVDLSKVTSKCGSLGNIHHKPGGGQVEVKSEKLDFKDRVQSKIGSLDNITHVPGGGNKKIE

IC50 [1]: 35.8 µM
Kd [2]: 3.5 µM
SMILES: O=c1cc(-c2ccccc2)oc2cc(O)c(O)c(O)c12 [Baicalein]

From paper doi:10.1101/704536v1 (biorxiv, 2019)
